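Dose response: 5 concentrations. Exposure: 48 h. Format: 96-well plates. Endpoint: linear interpolation; highest concentration if not reached. Here, GI50 denotes the concentration required for 50% inhibition of growth. The concentration for full growth arrest is given as TGI.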
Columns and labels:
Assay in all cases: inhibition of tumour cell growth, NCI panel, 48 h
[1] = test system: TK-10 renal
[2] = test system: M14 melanoma
[3] = test system: SF-539 CNS
[4] = test system: SK-OV-3 ovarian
[5] = test system: OVCAR-5 ovarian
[6] = test system: HCT-15 colon
[7] = test system: A498 renal
[8] = test system: NCI/ADR-RES ovarian
[9] = test system: NCI-H23 lung
[10] = test system: SK-MEL-2 melanoma
[11] = test system: SN12C renal
[12] = test system: PC-3 prostate
[13] = test system: CCRF-CEM leukemia
[14] = test system: MDA-MB-231 breast
[15] = test system: SF-268 CNS
[16] = test system: UACC-62 melanoma
[17] = test system: OVCAR-8 ovarian
[18] = test system: NCI-H522 lung
[19] = test system: ACHN renal
[20] = test system: U251 CNS
[21] = test system: SW-620 colon
[22] = test system: NCI-H460 lung
[23] = test system: IGROV1 ovarian
[24] = test system: SR leukemia
[25] = test system: HCT-116 colon
[26] = test system: KM12 colon
[27] = test system: UO-31 renal
[28] = test system: COLO 205 colon

## C#C[C@]1(O)CC[C@H]2[C@@H]3CC=C4c5sc(Nc6ccc(C)cn6)nc5CC[C@]4(C)[C@H]3CC[C@@]21C
[1]
  GI50: 2550 nM
  TGI: 9900 nM
[2]
  GI50: 536 nM
  TGI: 2550 nM
[3]
  GI50: 203 nM
  TGI: 646 nM
[4]
  GI50: 717 nM
  TGI: 3300 nM
[5]
  GI50: 2130 nM
  TGI: 6760 nM
[6]
  GI50: 1000 nM
  TGI: 2740 nM
[7]
  GI50: 376 nM
  TGI: 1120 nM
[8]
  GI50: 1860 nM
  TGI: 6940 nM
[9]
  GI50: 1240 nM
  TGI: 5160 nM
[10]
  GI50: 741 nM
  TGI: 3230 nM
[11]
  GI50: 2520 nM
  TGI: 10500 nM
[12]
  GI50: 379 nM
  TGI: 5080 nM
[13]
  GI50: 431 nM
  TGI: 3300 nM
[14]
  GI50: 1280 nM
  TGI: 4000 nM
[15]
  GI50: 1070 nM
  TGI: 10600 nM
[16]
  GI50: 363 nM
  TGI: 1430 nM
[17]
  GI50: 2020 nM
  TGI: > 27100 nM
[18]
  GI50: 2010 nM
  TGI: 4580 nM
[19]
  GI50: 907 nM
  TGI: 11200 nM
[20]
  GI50: 537 nM
  TGI: 5770 nM
[21]
  GI50: 657 nM
  TGI: 2230 nM
[22]
  GI50: 652 nM
  TGI: 5290 nM
[23]
  GI50: 1750 nM
  TGI: 12900 nM
[24]
  GI50: 343 nM
[25]
  GI50: 504 nM
  TGI: 2170 nM
[26]
  GI50: 1050 nM
  TGI: 4510 nM
[27]
  GI50: 378 nM
  TGI: 1620 nM
[28]
  GI50: 1490 nM
  TGI: 3680 nM

Source: PubChem BioAssay (NCI)
